Reference: patent publication US20090274764A1, “Hollow Foam Beads for Treatment of Glioblastoma” (priority 2008, published 2009)
Where two headings read alike, the source gives them in different places.

System: 9L gliosarcoma
Conditions: for % Survival: treated Day 5
Text: 88 rats were intracranially implanted on Day 0 with 9L gliosarcoma.

CO[C@H]1C[C@@H]2CC[C@@H](C)[C@@](O)(O2)C(=O)C(=O)N2CCCC[C@H]2C(=O)O[C@H]([C@H](C)C[C@@H]2CC[C@@H](O)[C@H](OC)C2)CC(=O)[C@H](C)/C=C(\C)[C@@H](O)[C@@H](OC)C(=O)[C@H](C)C[C@H](C)/C=C/C=C/C=C/1C [Rapamycin, rapamycin]
0.0002: Statistical Significance (survival) vs Day 5-0.2% (treatment Day 0)
0.2137: Statistical Significance (survival) vs Day 0-0.2% (treatment Day 5)
0.003: Statistical Significance (survival) vs Day 5-2.2% (treatment Day 5)
0%: % Survival (at Day 41, 2nd line)
0.9992: Statistical Significance (survival) vs Day 0-28% (treatment Day 5)
100%: % Survival (at Day 15, 1st line) | % Survival (at Day 15, 2nd line) | % Survival (at Day 16, 1st line) | % Survival (at Day 16, 2nd line) | % Survival (at Day 17, 1st line) | % Survival (at Day 17, 2nd line) | % Survival (at Day 18, 1st line) | % Survival (at Day 18, 2nd line) | % Survival (at Day 19, 1st line) | % Survival (at Day 19, 2nd line) | % Survival (at Day 20, 1st line) | % Survival (at Day 20, 2nd line) | % Survival (at Day 21, 1st line) | % Survival (at Day 21, 2nd line) | % Survival (at Day 22, 1st line) | % Survival (at Day 22, 2nd line) | % Survival (at Day 23, 1st line) | % Survival (at Day 23, 2nd line) | % Survival (at Day 24, 1st line) | % Survival (at Day 24, 2nd line) | % Survival (at Day 25, 1st line)
0.5157: Statistical Significance (survival) vs Day 5-Systemic (treatment Day 0) | Statistical Significance (survival) vs Day 0-Systemic (treatment Day 5)
28 days: Mean Survival (treatment initiated concurrently with tumor implantation (Day 0))
0.4226: Statistical Significance (survival) vs Day 0-0.2% (treatment Day 0)
37.5%: % Survival (at Day 32, 2nd line) | % Survival (at Day 33, 1st line) | % Survival (at Day 33, 2nd line) | % Survival (at Day 35, 1st line) | % Survival (at Day 35, 2nd line) | % Survival (at Day 40, 1st line) | % Survival (at Day 40, 2nd line) | % Survival (at Day 41, 1st line)
0.2237: Statistical Significance (survival) vs Day 0-2.2% (treatment Day 0)
62.5%: % Survival (at Day 27, 2nd line) | % Survival (at Day 28, 1st line)
75%: % Survival (at Day 26, 2nd line) | % Survival (at Day 27, 1st line)
0.7869: Statistical Significance (survival) vs Day 0-28% (treatment Day 0)
0.222: Statistical Significance (survival) vs Day 5-28% (treatment Day 5)
50%: % Survival (at Day 28, 2nd line) | % Survival (at Day 29, 1st line) | % Survival (at Day 29, 2nd line) | % Survival (at Day 30, 1st line) | % Survival (at Day 30, 2nd line) | % Survival (at Day 31, 1st line) | % Survival (at Day 31, 2nd line) | % Survival (at Day 32, 1st line)
0.0008: Statistical Significance (survival) vs Day 5-2.2% (treatment Day 0)
0.0001: Statistical Significance (survival) vs Day 0-Placebo (treatment Day 0) | Statistical Significance (survival) vs Day 5-Placebo (treatment Day 0) | Statistical Significance (survival) vs Day 0-Placebo (treatment Day 5) | Statistical Significance (survival) vs Day 5-0.2% (treatment Day 5) | Statistical Significance (survival) vs Day 5-Placebo (treatment Day 5)
29 days: Mean Survival (treatment initiated 5 days after tumor implantation)
